Experimental data published in patent US20260034116A1, “CANCER COMBINATION THERAPY INCLUDING A BCL-2 INHIBITOR” (RYVU THERAPEUTICS S.A., priority 2022, published 2026).
pIC50: −log10 of the molar value. Like-named read-outs stand apart in the source and are kept apart here.

Assays:
[1] = tested on: MOLM-13 cells (FLT3 ITD); assay: in vitro standard cytotoxicity experiment (MTS), 72 h, MEN with S65487 or AZD4320; format: cell-based, human; conditions: single agent
Description: (§1) In an in vitro standard cytotoxicity experiment, two AML cell lines (MOLM-13 [FLT3 ITD] and MV4-11 [FLT3 ITD]) were treated for 72 hours with MEN and S65487 either as a single agent or in combination.
(§2) In an in vitro standard cytotoxicity experiment, two AML cell lines (MOLM-13 [FLT3 ITD] and MV4-11 [FLT3 ITD]) were treated for 72 hours with MEN and AZD4320 either as a single agent or in combination.
(§3) Human acute myeloid leukemia cell lines MV4-11 and MOLM-13 were obtained from DSMZ, Braunschweig, Germany (ACC102 and ACC554). MV4-11 cells were cultured in RPMI 1640 medium (Gibco, Life Technologies, Carlsbad, CA, USA) supplemented with 10% fetal bovine serum (FBS) (Sigma, Saint Louis, CA, USA). MOLM-13 cells were grown in RPMI with 20% FBS. All cells were incubated at 37° C., 5% CO2, 80% relative humidity.
(§4) MEN1703 (alternatively referred to as “Men”, “MEN”, “MEN1703” or “SEL24/MEN1703”), in the HCl-salt form (CAS number 2769008-22-) with the IUPAC name 5,6-dibromo-4-nitro-2-(piperidin-4-yl)-1-(propan-2-yl)-1H-1,3-benzodiazole-4-amine hydrochloride (batch no. A/2201/24/1)), synthesized at Aptuit (VR); AZD4320 from MedChem Express, Monmouth Junction, NJ, USA, batch no. 64354) and S65487 from MedChem Express, Monmouth Junction, NJ, USA were dissolved in DMSO, divided into aliquots and stored at −80° C. until use. Stock solutions were added at appropriate concentration in culture medium before the addition to cells.
(§5) For cytotoxicity studies cells were seeded at appropriate density (50,000 cells/well) prior to addition of MEN and Quiz at day 0. The concentration range was previously identified in single agent cytotoxicity assays for the same time points in order to include in the combination experiment the IC10, IC25, IC50 and IC75 values for each drug and for each AML cell lines (see Tables 4 to 7). After 72 hours, CellTiter 96 Aqueous One Solution Reagent (MTS) (Promega, Madison. WI, USA) was added to assess the cell viability. […] was measured 4 h later using Tecan Infinite M200 (Tecan Trading AG, Switzerland), recording absorbance at 490 nm. Quantitative measurement of synergism/antagonism was evaluated with Combination Index (CI) on the Fraction affected (Fa) using CompuSyn (ComboSyn, Inc. Paramus, NJ, USA) (Chou TC, 2006).

[2] = tested on: MV4-11 cells (FLT3 ITD); assay: as above; format: cell-based, human; conditions: single agent
Description: as §1, §2, §3, §4, §5

[3] = tested on: KG1 cells (FLT3 wt); assay: in vitro standard cytotoxicity assay (MTS), Ven and/or 5-Aza 48 h followed by Men 24 h; format: cell-based, human; conditions: same time points as combination; for pIC50: read-out: IC50 dose level
Description: (§6) In an in vitro standard cytotoxicity assay, three AML cell lines (KG1 [FLT3 wt], MV4-11 [FLT3 ITD] and MOLM-13 [FLT3 ITD]) were treated with Ven and/or 5-Aza for 48 hours, followed by Men treatment for additional 24 hours. […] In MOLM13 cells (FLT3 ITD), the CI of the triple combination was similar to the CIs of the Men-Ven and the VenAza combinations (see Table 3).
as §3, with “lines KG-1,” for “lines”, “(ACC14, ACC102” for “(ACC102”, “ACC554). KG-1 and” for “ACC554).”, “humidity. The human acute myeloid leukemia cell line MOLM-16 was obtained from DSMZ, Braunschweig, Germany (cell line number ACC-555. MOLM-16 cells were grown in RPMI with 20% FBS (Sigma, Saint Louis, CA, USA). Cells were incubated at 37° C., 5% CO2, 80% relative humidity.” for “humidity.”
(§7) Men (alternatively referred to as “MEN1703”, in the HCI-salt form (CAS number 2769008-22-) with the IUPAC name 5,6-dibromo-4-nitro-2-(piperidin-4-yl)-1-(propan-2-yl)-1H-1,3-benzodiazole-4-amine hydrochloride (batch no. A/2201/24/1)), synthesized at Aptuit (VR) and Venetoclax (alternatively referred to as “Ven” or “ABT-199”, ChemCruz no. SC-472284A) were dissolved in DMSO, divided into aliquots and stored at-80° C. until use. Stock solutions were added at appropriate concentration in culture medium before the addition to cells. […] A stock solution was added at appropriate concentration in culture medium before the addition to cells.
(§8) For cytotoxicity studies cells were seeded at appropriate density (50.000 cells/well) prior to addition of Ven and 5-Aza at day 0. 5-Aza was added every 24 hours due to degradation (Hollen-bach PW, 2010 and Chang E, 2016). Then, after 48 hours, Men was added to cultured cells for the final 24 h (overall, a period of 72 h was tested). The concentration range was previously identified in single agent cytotoxic assay for the same time points in order to include in the combination experiment the IC10, IC25, IC50 and IC75 values for each drug and for each AML cell lines (see Tables 1 to 3). All possible combinations were assessed: Men+Ven, Ven+5-Aza, Men+5-Aza and men+5-Aza+Ven (mav). After 72 hours, CellTiter 96 Aqueous One Solution Reagent (MTS) (Promega, Madison. WI, USA) was added to assess the cell viability. […] was measured 4h later using Tecan Infinite M200 (Tecan Trading AG, Switzerland), recording absorbance at 490 nm. Quantitative measurement of synergism/antagonism was evaluated with Combination Index (CI) on the Fraction affected (Fa) using CompuSyn (ComboSyn, Inc. Paramus, NJ, USA) (Chou TC, 2006).

[4] = tested on: MOLM-13 cells (FLT3 ITD); assay: as above; format: cell-based, human; conditions: MOLM13 cells, single agent cytotoxic assay, same time points as combination; for pIC50: read-out: IC50 dose level
Description: as §6
as §3, with “lines KG-1,” for “lines”, “(ACC14, ACC102” for “(ACC102”, “ACC554). KG-1 and” for “ACC554).”, “humidity. The human acute myeloid leukemia cell line MOLM-16 was obtained from DSMZ, Braunschweig, Germany (cell line number ACC-555. MOLM-16 cells were grown in RPMI with 20% FBS (Sigma, Saint Louis, CA, USA). Cells were incubated at 37° C., 5% CO2, 80% relative humidity.” for “humidity.”
as §7, §8

[5] = tested on: MV4-11 cells (FLT3 ITD); assay: as above; format: cell-based, human; conditions: single agent cytotoxic assay, same time points as combination; for pIC50: read-out: IC50 dose level
Description: as §6
as §3, with “lines KG-1,” for “lines”, “(ACC14, ACC102” for “(ACC102”, “ACC554). KG-1 and” for “ACC554).”, “humidity. The human acute myeloid leukemia cell line MOLM-16 was obtained from DSMZ, Braunschweig, Germany (cell line number ACC-555. MOLM-16 cells were grown in RPMI with 20% FBS (Sigma, Saint Louis, CA, USA). Cells were incubated at 37° C., 5% CO2, 80% relative humidity.” for “humidity.”
as §7, §8

[6] = tested on: broad panel of AML cell lines in xenograft models; conditions: in vivo; cited from earlier work
[7] = tested on: AML; conditions: single agent in AML treatment; cited from earlier work
[8] = Homo sapiens, KG-1, single agent cytotoxic assay

`CN(CCO)CC[C@H](CSc1ccccc1)Nc1ccc(S(=O)(=O)NC(=O)c2ccc(N3CCC([C@@H](O)c4ccccc4-c4ccc(Cl)cc4)CC3)cc2)cc1S(=O)(=O)C(F)(F)F` [AZD4320] showed an IC10 [1] of 3.4 nM, an IC25 [1] of 11 nM and a pIC50 [1] of 7.43. It also gave an IC75 [1] of 120 nM, an IC10 [2] of 0.65 nM and an IC25 [2] of 1.3 nM. It also gave a pIC50 [2] of 8.57 and an IC75 [2] of 5.5 nM.

`Nc1ncn([C@@H]2O[C@H](CO)[C@@H](O)[C@H]2O)c(=O)n1` [Aza, 5-Azacitidine] gave a pIC50 [3, 8] of 6.12, an IC10 dose level ([3]; single agent cytotoxic assay) of 97 nM and an IC25 dose level ([3]; single agent cytotoxic assay) of 270 nM. The IC75 dose level ([3]; single agent cytotoxic assay) was 2150 nM, the pIC50 ([4]; Homo sapiens, MOLM-13) was 6.02 and the IC10 dose level [4] was 83 nM. It also gave an IC25 dose level [4] of 280 nM, an IC75 dose level [4] of 3280 nM and a pIC50 ([5]; Homo sapiens) of 6.19. It also gave an IC10 dose level [5] of 140 nM, an IC25 dose level [5] of 300 nM and an IC75 dose level [5] of 1410 nM.

Work on `CC(C)n1c(C2CCNCC2)nc2c([N+](=O)[O-])c(Br)c(Br)cc21` [Men, 5,6-dibromo-4-nitro-2-(piperidin-4-yl)-1-(pro-pan-2-yl)-1H-1,3-benzodiazole] yielded an IC10 [1] of 87.29 nM, an IC25 [1] of 211.1 nM and a pIC50 [1] of 6.29. For the same molecule, the IC75 [1] was 1234 nM, the IC10 [2] was 13.15 nM and the IC25 [2] was 35 nM. The pIC50 [2] was 7.03, the IC75 [2] was 248.6 nM and the “growth of AML cell lines in xenograft models” value [6] was “inhibit the growth of a broad panel of AML cell lines in xenograft models”. The IC10 dose level ([3]; single agent cytotoxic assay) was 151 nM, the IC25 dose level ([3]; single agent cytotoxic assay) was 293 nM and the IC75 dose level ([3]; single agent cytotoxic assay) was 1103 nM. For the same molecule, the pIC50 ([3]; single agent cytotoxic assay) was 6.24, the IC10 dose level [4] was 40 nM and the IC25 dose level [4] was 280 nM. The IC75 dose level [4] was 10880 nM, the pIC50 [4] was 5.76 and the IC10 dose level [5] was 6 nM. The IC25 dose level [5] was 48 nM, the IC75 dose level [5] was 2770 nM and the pIC50 [5] was 6.44.

Molecule `Cc1c(N(C(=O)c2cc(-c3cc(Cl)ccc3C(=O)N3Cc4ccccc4C[C@H]3CN3CCOCC3)n(C)c2C)c2ccc(O)cc2)cc(C#N)n1C` [S65487] has a pIC50 ([1]; Homo sapiens) of 6.65, an IC10 [1] of 14.5 nM and an IC25 [1] of 57 nM. For the same molecule, the IC75 [1] was 880 nM, the pIC50 ([2]; Homo sapiens) was 7.74 and the IC10 [2] was 2.5 nM. It also gave an IC25 [2] of 6.6 nM and an IC75 [2] of 48 nM.

For `CC1(C)CCC(CN2CCN(c3ccc(C(=O)NS(=O)(=O)c4ccc(NCC5CCOCC5)c([N+](=O)[O-])c4)c(Oc4cnc5[nH]ccc5c4)c3)CC2)=C(c2ccc(Cl)cc2)C1` [Ven, Venetoclax], the pIC50 [3, 8] was 5.78, the IC10 dose level ([3]; single agent cytotoxic assay) was 180 nM and the IC25 dose level ([3]; single agent cytotoxic assay) was 550 nM. It also gave an IC75 dose level ([3]; single agent cytotoxic assay) of 4950 nM, a pIC50 ([4]; Homo sapiens, MOLM-13) of 6.35 and an IC10 dose level [4] of 12 nM. The IC25 dose level [4] was 75 nM, the IC75 dose level [4] was 2770 nM and the pIC50 ([5]; Homo sapiens) was 8.52. It also gave an IC10 dose level [5] of 0.276 nM, an IC25 dose level [5] of 0.829 nM and an IC75 dose level [5] of 7 nM. The safety [7] was “safe”.
